# Experimental data: patent US4746349A, “Method and compositions for suppressing the nitrification of ammonium in plant growth medium” (American Cyanamid Company, priority 1986, dated 1988)
# Counter-ions that a name gives are not always drawn.
# How the values were obtained:
# [1] = tested on: Nitrosomonas spp.; assay: Nitrification of ammonium in soil incubated at 25° C. (ammonium recovery, nitrate accumulation); conditions: soil 25° C.; for Concentration of nitrate nitrogen / Recovery of Ammonium Nitrogen: 200 ppm N
# Experimental: In these evaluations, one hundred grams (100 g) of oven dry, silt loam field soil with low residual nitrogen is added to a 6×12 cm screw-capped glass jar for each sampling date to provide an optimum environment for nitrification.
# Two replicates of each treatment-sampling date are established. The soil is adjusted to 50% water saturation with an aqueous solution of ammonium sulfate at 200 ppm N and the chemical to be tested as a nitrification inhibitor at rates of from 0.10 to 0.50 ppm.
# Incubation is at either 25° C. or 38° C. for 0, 1, 2, 4, 7, 9, 12, 16 or 20 weeks. Inorganic N is extracted by adding 2M KCl (10:1 v/w) and shaking for one hour, allowing settling for fifteen minutes. A 10 ml aliquot from the supernatant is assayed for ammonium, nitrite and nitrate by standard steam distillation methods (AOAC, pp. 653-655). Nitrapyrin (0.5 ppm) is used as a nitrification inhibitor for comparison. Benzyl alcohol, acetone, and a non-N amended soil are run as controls and as a check on mineralization.
# Nitrification: Ammonium recovery and nitrate accumulation are indicative of nitrification, and data obtained with test compounds are reported in Tables I and II.
# [2] = tested on: Nitrobacter spp.; assay: Nitrite nitrogen in ammonium amended soil incubated at 25° C.; conditions: soil 25° C., 200 ppm N
# Experimental: Determination of nitrite nitrogen and nitrate nitrogen in soil prepared in Example 1 above, which is amended with 200 ppm of nitrogen as aqueous ammonium sulfate, […], is determined using the nitrite and nitrate analysis of the American Organization of Analytical Chemists (AOAC pp. 653-655).
structure (smiles),measurement,setting,value
CC(C)=O [Acetone],"Effect on nitrification, in words",[1]; 5%,initial rate of nitrification is slowed slightly
same,Concentration of nitrate nitrogen,"[1]; 5%, week 0",19 PPM
same,Recovery of Ammonium Nitrogen,"[1]; 5%, week 0",194 PPM
same,Concentration of nitrate nitrogen,"[1]; 5%, week 1",7 PPM
same,Recovery of Ammonium Nitrogen,"[1]; 5%, week 1",138 PPM
same,Concentration of nitrate nitrogen,"[1]; 5%, week 2",0 PPM
same,Recovery of Ammonium Nitrogen,"[1]; 5%, week 2",122 PPM
same,Concentration of nitrate nitrogen,"[1]; 5%, week 4",36 PPM
same,Recovery of Ammonium Nitrogen,"[1]; 5%, week 4",127 PPM
same,Concentration of nitrate nitrogen,"[1]; 5%, week 7",75 PPM
same,Recovery of Ammonium Nitrogen,"[1]; 5%, week 7",8 PPM
same,Concentration of nitrate nitrogen,"[1]; 5%, week 9",100 PPM
same,Recovery of Ammonium Nitrogen,"[1]; 5%, week 9",1 PPM
same,Concentration of nitrate nitrogen,"[1]; 5%, week 12",155 PPM
same,Recovery of Ammonium Nitrogen,"[1]; 5%, week 12",1 PPM
same,Concentration of nitrate nitrogen,"[1]; 5%, week 16",165 PPM
same,Recovery of Ammonium Nitrogen,"[1]; 5%, week 16",1 PPM
same,Concentration of nitrite nitrogen,"[2]; 5%, week 0",6 ppm
same,Concentration of nitrite nitrogen,"[2]; 5%, week 1",4 ppm
same,Concentration of nitrite nitrogen,"[2]; 5%, week 2",-1 ppm
same,Concentration of nitrite nitrogen,"[2]; 5%, week 4",9 ppm
same,Concentration of nitrite nitrogen,"[2]; 5%, week 7",56 ppm
same,Concentration of nitrite nitrogen,"[2]; 5%, week 9",5 ppm
same,Concentration of nitrite nitrogen,"[2]; 5%, week 12",20 ppm
same,Concentration of nitrite nitrogen,"[2]; 5%, week 16",10 ppm
same,Concentration of nitrite nitrogen,"[2]; 5%, week 20",11 ppm
"CC[C@@H](C(=O)[C@@H](C)[C@@H](O)[C@H](C)CCc1ccc(C)c(O)c1C(=O)O)[C@H]1O[C@](CC)([C@H]2CC[C@](O)(CC)[C@H](C)O2)C[C@@H]1C [Lasalocid sodium salt, Lasalocid]",Concentration of nitrate nitrogen,"[1]; 0.10 ppm, week 0",19 PPM
same,Recovery of Ammonium Nitrogen,"[1]; 0.10 ppm, week 0",194 PPM
same,Concentration of nitrate nitrogen,"[1]; 0.10 ppm, week 1",21 PPM
same,Recovery of Ammonium Nitrogen,"[1]; 0.10 ppm, week 1",177 PPM
same,Concentration of nitrate nitrogen,"[1]; 0.10 ppm, week 2",41 PPM
same,Recovery of Ammonium Nitrogen,"[1]; 0.10 ppm, week 2",143 PPM
same,Concentration of nitrate nitrogen,"[1]; 0.10 ppm, week 4",90 PPM
same,Recovery of Ammonium Nitrogen,"[1]; 0.10 ppm, week 4",109 PPM
same,Concentration of nitrate nitrogen,"[1]; 0.10 ppm, week 7",197 PPM
same,Recovery of Ammonium Nitrogen,"[1]; 0.10 ppm, week 7",7 PPM
same,Concentration of nitrate nitrogen,"[1]; 0.10 ppm, week 9",219 PPM
same,Recovery of Ammonium Nitrogen,"[1]; 0.10 ppm, week 9",0 PPM
same,Concentration of nitrate nitrogen,"[1]; 0.10 ppm, week 12",220 PPM
same,Recovery of Ammonium Nitrogen,"[1]; 0.10 ppm, week 12",8 PPM
same,Concentration of nitrate nitrogen,"[1]; 0.10 ppm, week 16",223 PPM
same,Recovery of Ammonium Nitrogen,"[1]; 0.10 ppm, week 16",3 PPM
same,"Specific inhibition of nitrification through activity against Nitrosomonas spp., in words",[1]; 0.1 to 0.5 ppm,appear to specifically inhibit nitrification through activity against Nitrosomonas spp.
same,Concentration of nitrate nitrogen,"[1]; 0.25 ppm, week 0",18 PPM
same,Recovery of Ammonium Nitrogen,"[1]; 0.25 ppm, week 0",194 PPM
same,Concentration of nitrate nitrogen,"[1]; 0.25 ppm, week 1",21 PPM
same,Recovery of Ammonium Nitrogen,"[1]; 0.25 ppm, week 1",184 PPM
same,Concentration of nitrate nitrogen,"[1]; 0.25 ppm, week 2",18 PPM
same,Recovery of Ammonium Nitrogen,"[1]; 0.25 ppm, week 2",186 PPM
same,Concentration of nitrate nitrogen,"[1]; 0.25 ppm, week 4",28 PPM
same,Recovery of Ammonium Nitrogen,"[1]; 0.25 ppm, week 4",197 PPM
same,Concentration of nitrate nitrogen,"[1]; 0.25 ppm, week 7",26 PPM
same,Recovery of Ammonium Nitrogen,"[1]; 0.25 ppm, week 7",194 PPM
same,Concentration of nitrate nitrogen,"[1]; 0.25 ppm, week 9",68 PPM
same,Recovery of Ammonium Nitrogen,"[1]; 0.25 ppm, week 9",147 PPM
same,Concentration of nitrate nitrogen,"[1]; 0.25 ppm, week 12",46 PPM
same,Recovery of Ammonium Nitrogen,"[1]; 0.25 ppm, week 12",180 PPM
same,Concentration of nitrate nitrogen,"[1]; 0.25 ppm, week 16",158 PPM
same,Recovery of Ammonium Nitrogen,"[1]; 0.25 ppm, week 16",78 PPM
same,Concentration of nitrate nitrogen,"[1]; 0.25 ppm, week 20",154 PPM
same,Recovery of Ammonium Nitrogen,"[1]; 0.25 ppm, week 20",44 PPM
same,Concentration of nitrate nitrogen,"[1]; 0.50 ppm, week 0",18 PPM
same,Recovery of Ammonium Nitrogen,"[1]; 0.50 ppm, week 0",195 PPM
same,Concentration of nitrate nitrogen,"[1]; 0.50 ppm, week 1",18 PPM
same,Recovery of Ammonium Nitrogen,"[1]; 0.50 ppm, week 1",169 PPM
same,Concentration of nitrate nitrogen,"[1]; 0.50 ppm, week 2",14 PPM
same,Recovery of Ammonium Nitrogen,"[1]; 0.50 ppm, week 2",168 PPM
same,Concentration of nitrate nitrogen,"[1]; 0.50 ppm, week 4",18 PPM
same,Recovery of Ammonium Nitrogen,"[1]; 0.50 ppm, week 4",173 PPM
same,Concentration of nitrate nitrogen,"[1]; 0.50 ppm, week 7",18 PPM
same,Recovery of Ammonium Nitrogen,"[1]; 0.50 ppm, week 7",199 PPM
same,Concentration of nitrate nitrogen,"[1]; 0.50 ppm, week 9",17 PPM
same,Recovery of Ammonium Nitrogen,"[1]; 0.50 ppm, week 9",202 PPM
same,Concentration of nitrate nitrogen,"[1]; 0.50 ppm, week 12",20 PPM
same,Recovery of Ammonium Nitrogen,"[1]; 0.50 ppm, week 12",215 PPM
same,Concentration of nitrate nitrogen,"[1]; 0.50 ppm, week 16",52 PPM
same,Recovery of Ammonium Nitrogen,"[1]; 0.50 ppm, week 16",175 PPM
same,Concentration of nitrate nitrogen,"[1]; 0.50 ppm, week 20",26 PPM
same,Recovery of Ammonium Nitrogen,"[1]; 0.50 ppm, week 20",135 PPM
same,Concentration of nitrite nitrogen,"[2]; 0.10 ppm, week 0",8 ppm
same,Concentration of nitrite nitrogen,"[2]; 0.10 ppm, week 1",2 ppm
same,Concentration of nitrite nitrogen,"[2]; 0.10 ppm, week 2",1 ppm
same,Concentration of nitrite nitrogen,"[2]; 0.10 ppm, week 4",15 ppm
same,Concentration of nitrite nitrogen,"[2]; 0.10 ppm, week 7",12 ppm
same,Concentration of nitrite nitrogen,"[2]; 0.10 ppm, week 9",10 ppm
same,Concentration of nitrite nitrogen,"[2]; 0.10 ppm, week 12",5 ppm
same,Concentration of nitrite nitrogen,"[2]; 0.10 ppm, week 16",6 ppm
same,Concentration of nitrite nitrogen,"[2]; 0.10 ppm, week 20",11 ppm
same,Concentration of nitrite nitrogen,"[2]; 0.25 ppm, week 0",5 ppm
same,Concentration of nitrite nitrogen,"[2]; 0.25 ppm, week 1",0 ppm
same,Concentration of nitrite nitrogen,"[2]; 0.25 ppm, week 2",3 ppm
same,Concentration of nitrite nitrogen,"[2]; 0.25 ppm, week 4",2 ppm
same,Concentration of nitrite nitrogen,"[2]; 0.25 ppm, week 7",0 ppm
same,Concentration of nitrite nitrogen,"[2]; 0.25 ppm, week 9",3 ppm
same,Concentration of nitrite nitrogen,"[2]; 0.25 ppm, week 12",8 ppm
same,Concentration of nitrite nitrogen,"[2]; 0.25 ppm, week 16",-1 ppm
same,Concentration of nitrite nitrogen,"[2]; 0.25 ppm, week 20",40 ppm
same,Concentration of nitrite nitrogen,"[2]; 0.50 ppm, week 0",7 ppm
same,Concentration of nitrite nitrogen,"[2]; 0.50 ppm, week 1",2 ppm
same,Concentration of nitrite nitrogen,"[2]; 0.50 ppm, week 2",6 ppm
same,Concentration of nitrite nitrogen,"[2]; 0.50 ppm, week 4",2 ppm
same,Concentration of nitrite nitrogen,"[2]; 0.50 ppm, week 7",-4 ppm
same,Concentration of nitrite nitrogen,"[2]; 0.50 ppm, week 9",2 ppm
same,Concentration of nitrite nitrogen,"[2]; 0.50 ppm, week 12",-11 ppm
same,Concentration of nitrite nitrogen,"[2]; 0.50 ppm, week 16",7 ppm
same,Concentration of nitrite nitrogen,"[2]; 0.50 ppm, week 20",7 ppm
